The term EC50 denotes the midpoint of the concentration-response curve.

The assay has as its target Pyruvate kinase PKM (Homo sapiens, UniProt P14618). The assay is described as follows: Activation Assay Measuring In Vitro Activation of Recombinant Human PKM2. The protocol:
Human PKM2 was diluted into Assay Buffer comprising 50 mM imidazole, 50 mM KCl, 7 mM MgCl2, 0.01% Tween20, 0.05% BSA (pH 7.2) to a final concentration of 5 pM. Enzyme-Assay Buffer mix was dispensed into a 384-well shallow-well white-walled plate (PerkinElmer) and Test Compounds added by acoustic dispense (Echo , Labcyte Inc.). […] Kinase-Glo Plus reagent was added to each well and the plates incubated for a further 15 minutes on an orbital shaker in the dark (300 rpm, 26° C.) before luminescence measurement on a plate reader (PHERAstar FSX, BMG Labtech).

Chain of Pyruvate kinase PKM (P14618 whole entry): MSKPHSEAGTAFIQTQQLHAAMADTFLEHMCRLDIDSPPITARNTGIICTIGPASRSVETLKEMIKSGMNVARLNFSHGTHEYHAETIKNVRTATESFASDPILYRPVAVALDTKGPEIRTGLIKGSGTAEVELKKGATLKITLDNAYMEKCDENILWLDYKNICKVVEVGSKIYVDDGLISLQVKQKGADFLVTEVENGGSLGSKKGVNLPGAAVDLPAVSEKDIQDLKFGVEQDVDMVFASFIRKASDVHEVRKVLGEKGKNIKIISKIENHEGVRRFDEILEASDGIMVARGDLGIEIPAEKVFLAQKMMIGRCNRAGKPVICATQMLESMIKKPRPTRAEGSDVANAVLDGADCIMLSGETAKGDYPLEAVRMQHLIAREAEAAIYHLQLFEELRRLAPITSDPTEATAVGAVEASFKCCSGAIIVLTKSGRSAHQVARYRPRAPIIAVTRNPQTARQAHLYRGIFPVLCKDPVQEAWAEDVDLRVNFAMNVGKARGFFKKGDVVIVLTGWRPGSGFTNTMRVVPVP

Regarding `Cn1c2c(c3cnn(Cc4cccc(C(C)(C)O)c4)c(=O)c31)CCN(S(C)(=O)=O)C2` [US20240409542, Example 33], the EC50 was 354 nM.

The record behind these values is BindingDB's records for patent US20240409542 (Sitryx Therapeutics, 2024).
